In data set [1] the target is Serine/threonine-protein kinase mTOR (Homo sapiens, UniProt P42345).
Description: Inhibition of mTOR (unknown origin)
In a further data set the test system is A549. Nature of the data set: cells. The note with it: Homo sapiens.
For the next data set, the system named is MCF7. The data set is described as follows: Antiproliferative activity against human MCF7 cells. Format: functional, cell-based.
A further data set is filed under the species Homo sapiens. Nature of the data set: Selectivity index, ratio of IC50 for PI3Kalpha (unknown origin) to IC50 for mTOR (unknown origin). The data set is classed as functional.
The next data set is described as follows: clinical. Particulars: human.
In a further data set the test system is HeLa. The data set is described as follows: cells. Particulars: Homo sapiens.
A further data set relates to PC-3. The data set is described as follows: cells. Particulars: Homo sapiens.
The next data set relates to CAKI-1. The data set is described as follows: cells. The note with it: Homo sapiens.
The next data set relates to MIA PaCa-2. The data set is described as follows: cells. The note with it: Homo sapiens.

What is called IC50 is the point on the concentration scale where inhibition reaches its midpoint. The half-life is how long it takes for the measured level to halve.

Description for A549: Antiproliferative activity against human A549 cells
Description for CAKI-1: Antiproliferative activity against human CAKI-1 cells
Description for HeLa: Antiproliferative activity against human HeLa cells
Description for MIA PaCa-2: Antiproliferative activity against human MIA PaCa-2 cells
Description for PC-3: Antiproliferative activity against human PC-3 cells

In data set [1], `CCOC(=O)N1Cc2nc(-c3ccc(NC(=O)NC4CC4)cc3)nc(N3CCOC[C@@H]3C)c2C1` had an IC50 of less than 1 µM.

Take `CCc1ccc(C(=O)c2cnc3cc4c(cc3c2N2CCC(C(N)=O)CC2)OCCO4)cc1`: the half-inhibitory concentration (IC50) in the data set with A549 was found to be 8 µM; in the data set on MCF7, 2 µM.

In data set [1], `CO[C@H]1C[C@@H]2CC[C@@H](C)[C@@](O)(O2)C(=O)C(=O)N2CCCC[C@H]2C(=O)O[C@H]([C@H](C)C[C@@H]2CC[C@@H](OCCO)[C@H](OC)C2)CC(=O)[C@H](C)/C=C(\C)[C@@H](O)[C@@H](OC)C(=O)[C@H](C)C[C@H](C)/C=C/C=C/C=C/1C` [EVEROLIMUS] gave an IC50 of 0.005 µM.

On to `O=C(c1ccc(C(=O)C(F)(F)F)cc1)N1CCOc2ccc(-c3cnc4ccccc4c3)cc2C1`, for which the midpoint of inhibition in data set [1], the IC50, lay at 0.095 µM. In the data set listed under Homo sapiens, the Ratio IC50 amounted to 4.

`C[C@H]1COCCN1c1nc(-c2ccc(NC(=O)NCC(F)F)cc2)cc(-c2cc(F)ccc2S(C)(=O)=O)n1` came in with a half-inhibitory concentration (IC50) in [1] of less than 1 µM.

Compound `CO[C@H]1C[C@@H]2CC[C@@H](C)[C@@](O)(O2)C(=O)C(=O)N2CCCC[C@H]2C(=O)O[C@H]([C@H](C)C[C@@H]2CC[C@@H](O)[C@H](OC)C2)CC(=O)[C@H](C)/C=C(\C)[C@@H](O)[C@@H](OC)C(=O)[C@H](C)C[C@H](C)/C=C/C=C/C=C/1C` [SIROLIMUS] showed a half-life in the data set “clinical” of 40 h.

Consider `CCCc1nn(C)c2c(=O)[nH]c(-c3cc(OC)cc(OC)c3)nc12`, for which the concentration for half-maximal inhibition (IC50) was 14 µM with A549; 19 µM in the data set with HeLa; 38 µM in the data set on PC-3; 17 µM with CAKI-1; 24 µM with MIA PaCa-2.

Compound `COc1ccc(C2Cc3c(C)nc(N)nc3N([C@H]3CC[C@H](OCCO)CC3)C2=O)cn1` (some centres undefined) gave an IC50 in data set [1] of 0.016 µM.
